According to patent EP3875456A1, “HETERO-BIFUNCTIONAL PROTEOLYSIS-TARGETING CHIMERAS (PROTACS) FOR THE SELECTIVE DEGRADATION OF FK506-BINDING PROTEINS (FKBPS)” (Technische Universität Darmstadt, priority 2020, dated 2021):

Target: T1, FKBP51FK1 (Homo sapiens, UniProt Q13451)
T1 construct: FKBP51FK1
T1 sequence (Q13451 42-130 limits assumed): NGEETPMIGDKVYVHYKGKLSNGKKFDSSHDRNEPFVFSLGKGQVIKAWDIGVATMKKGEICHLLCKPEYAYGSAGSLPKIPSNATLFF
Assay: Binding affinities of exemplary compounds to FKBP51
Method: Binding to FKBP51 is an important prerequisite in order to allow degradation of FKBP51. Thus, the binding affinities of the newly synthesized molecules (table 1) were tested.

| SMILES | Ki [nM] |
| --- | --- |
| COc1ccc(CC[C@@H](OC(=O)[C@@H]2CCCCN2C(=O)[C@H](c2cc(OC)c(OC)c(OC)c2)C2CCCCC2)c2cccc(OCc3cn(CCOCCOCCOCCOCC(=O)Nc4cccc5c4C(=O)N(C4CCC(=O)NC4=O)C5=O)nn3)c2)cc1OC (stereo partly drawn) [MTQ207, (2S)-(1R)-3-(3,4-Dimethoxyphenyl)-1-(3-((1-(14-((2-(2,6-dioxopiperidin-3-yl)-1,3-dioxoisoindolin-4-yl)amino)-14-oxo-3,6,9,12-tetraoxatetradecyl)-1H-1,2,3-triazol-4-yl)methoxy)phenyl)propyl 1-((S)-2-cyclohexyl-2-(3,4,5-trimethoxyphenyl)acetyl)piperidine-2-carboxylate] | 18 ± 4 |
| COc1ccc(CC[C@@H](OC(=O)[C@@H]2CCCCN2C(=O)[C@H](c2cc(OC)c(OC)c(OC)c2)C2CCCCC2)c2cccc(OCc3cn(CCOCCOCCOCCOCCOCC(=O)Nc4cccc5c4C(=O)N(C4CCC(=O)NC4=O)C5=O)nn3)c2)cc1OC (stereo partly drawn) [MTQ208, (2S)-(1R)-3-(3,4-Dimethoxyphenyl)-1-(3-((1-(17-((2-(2,6-dioxopiperidin-3-yl)-1,3-dioxoisoindolin-4-yl)amino)-17-oxo-3,6,9,12,15-pentaoxaheptadecyl)-1H-1,2,3-triazol-4-yl)methoxy)phenyl)propyl 1-((S)-2-cyclohexyl-2-(3,4,5-trimethoxyphenyl)acetyl)piperidine-2-carboxylate] | 5 ± 1 |
| COc1cccc([C@H](CCc2ccc(OCc3cn(CCOCCOCCOCC(=O)N[C@H](C(=O)N4C[C@H](O)C[C@H]4C(=O)NCc4ccc(-c5scnc5C)cc4)C(C)(C)C)nn3)c(OC)c2)OC(=O)[C@H]2CCCCN2C(=O)[C@H](c2cc(OC)c(OC)c(OC)c2)C2CCCCC2)c1 [MTQ330, (S)-(R)-3-(4-((1-((S)-13-((2S,4R)-4-Hydroxy-2-((4-(4-methylthiazol-5-yl)benzyl)carbamoyl)pyrrolidine-1-carbonyl)-14,14-dimethyl-11-oxo-3,6,9-trioxa-12-azapentadecyl)-1H-1,2,3-triazol-4-yl)methoxy)-3-methoxyphenyl)-1-(3-methoxyphenyl)propyl 1-((S)-2-cyclohexyl-2-(3,4,5-trimethoxyphenyl)acetyl)piperidine-2-carboxylate] | 86 ± 26 |
| COc1ccc(CC[C@@H](OC(=O)[C@@H]2CCCCN2C(=O)[C@H](c2cc(OC)c(OC)c(OC)c2)C2CCCCC2)c2cccc(OCc3cn(CCOCC(=O)Nc4cccc5c4C(=O)N(C4CCC(=O)NC4=O)C5=O)nn3)c2)cc1OC (stereo partly drawn) [MTQ204, (25)-(1R)-3-(3,4-Dimethoxyphenyl)-1-(3-((1-(2-(2-((2-(2,6-dioxopiperidin-3-yl)-1,3-dioxoisoindolin-4-yl)amino)-2-oxoethoxy)ethyl)-1H-1,2,3-triazol-4-yl)methoxy)phenyl)propyl1-((S)-2-cyclohexyl-2-(3,4,5-trimethoxyphenyl)acetyl)piperidine-2-carboxylate] | 19 ± 5 |
| COc1ccc(CC[C@@H](OC(=O)[C@@H]2CCCCN2C(=O)[C@H](c2cc(OC)c(OC)c(OC)c2)C2CCCCC2)c2cccc(OCc3cn(CCOCCOCC(=O)Nc4cccc5c4C(=O)N(C4CCC(=O)NC4=O)C5=O)nn3)c2)cc1OC (stereo partly drawn) [MTQ205, (2S)-(1R)-3-(3,4-Dimethoxyphenyl)-1-(3-((1-(2-(2-(2-((2-(2,6-dioxopiperidin-3-yl)-1,3-dioxoisoindolin-4-yl)amino)-2-oxoethoxy)ethoxy)ethyl)-1H-1,2,3-triazol-4-yl)methoxy)phenyl)propyl 1-((S)-2-cyclohexyl-2-(3,4,5-trimethoxyphenyl)acetyl)piperidine-2-carboxylate] | 16 ± 5 |
| COc1cccc([C@@H](CCc2ccc(OCc3cn(CCOCCOCCOCCOCC(=O)N[C@H](C(=O)N4C[C@H](O)C[C@H]4C(=O)NCc4ccc(-c5scnc5C)cc4)C(C)(C)C)nn3)c(OC)c2)OC(=O)[C@@H]2CCCCN2C(=O)[C@H](c2cc(OC)c(OC)c(OC)c2)C2CCCCC2)c1 [MTQ331, (S)-(R)-3-(4-((1-((5)-16-((25,4R)-4-Hydroxy-2-((4-(4-methylthiazol-5-yl)benzyl)carbamoyl)pyrrolidine-l-carbonyl)-17,17-dimethyl-14-oxo-3,6,9,12-tetraoxa-15-azaoctadecyl)-1H-1,2,3-triazol-4-yl)methoxy)-3-methoxyphenyl)-1-(3-methoxyphenyl)propyl 1-((S)-2-cyclohexyl-2-(3,4,5-trimethoxyphenyl)acetyl)piperidine-2-carboxylate] | 59 ± 22 |
| COc1ccc(CC[C@H](OC(=O)[C@H]2CCCCN2C(=O)[C@H](c2cc(OC)c(OC)c(OC)c2)C2CCCCC2)c2cccc(OCc3cn(CCOCCOCCOCCOCCOCC(=O)N[C@H](C(=O)N4C[C@H](O)C[C@H]4C(=O)NCc4ccc(-c5scnc5C)cc4)C(C)(C)C)nn3)c2)cc1OC [MTQ203, (S)-(R)-3-(3,4-Dimethoxyphenyl)-1-(3-((1-((S)-19-((2S,4R)-4-hydroxy-2-((4-(4-methylthiazol-5-yl)benzyl)carbamoyl)pyrrolidine-1-carbonyl)-20,20-dimethyl-17-oxo-3,6,9,12,15-pentaoxa-18-azahenicosyl)-1H-1,2,3-triazol-4-yl)methoxy)phenyl)propyl 1-((S)-2-cyclohexyl-2-(3,4,5-trimethoxyphenyl)acetyl)piperidine-2-carboxylate] | 12 ± 3 |
| C#CCOc1cccc([C@H](CCc2ccc(OC)c(OC)c2)OC(=O)[C@H]2CCCCN2C(=O)[C@H](c2cc(OC)c(OC)c(OC)c2)C2CCCCC2)c1 (stereo in doubt) [Molecule (9), (S)-(R)-3-(3,4-Dimethoxyphenyl)-1-(3-(prop-2-yn-1-yloxy)phenyl)propyl 1-((S)-2-cyclohexyl-2-(3,4,5-trimethoxyphenyl)acetyl)piperidine-2-carboxylate] | 32 ± 7 |
| COc1cccc([C@@H](CCc2ccc(OCc3cn(CCOCCOCC(=O)Nc4cccc5c4C(=O)N(C4CCC(=O)NC4=O)C5=O)nn3)c(OC)c2)OC(=O)[C@@H]2CCCCN2C(=O)[C@H](c2cc(OC)c(OC)c(OC)c2)C2CCCCC2)c1 (stereo partly drawn) [MTQ334, (25)-(1R)-3-(4-((1-(2-(2-(2-((2-(2,6-Dioxopiperidin-3-yl)-1,3-dioxoisoindolin-4-yl)amino)-2-oxoethoxy)ethoxy)ethyl)-1H-1,2,3-triazol-4-yl)methoxy)-3-methoxyphenyl)-1-(3-methoxyphenyl)propyl 1-((S)-2-cyclohexyl-2-(3,4,5-trimethoxyphenyl)acetyl)piperidine-2-carboxylate] | 21 ± 10 |
| COc1cccc([C@@H](CCc2ccc(OCc3cn(CCOCCOCCOCCOCCOCC(=O)N[C@H](C(=O)N4C[C@H](O)C[C@H]4C(=O)NCc4ccc(-c5scnc5C)cc4)C(C)(C)C)nn3)c(OC)c2)OC(=O)[C@@H]2CCCCN2C(=O)[C@H](c2cc(OC)c(OC)c(OC)c2)C2CCCCC2)c1 [MTQ332, (S)-(R)-3-(4-((1-((S)-19-((2S,4R)-4-Hydroxy-2-((4-(4-methylthiazo1-5-yl)benzyl)carbamoyl)pyrrolidine-1-carbonyl)-20,20-dimethyl-17-oxo-3,6,9,12,15-pentaoxa-18-azahenicosyl)-1H-1,2,3-triazol-4-yl)methoxy)-3-methoxyphenyl)-1-(3-methoxyphenyl)propyl 1-((S)-2-cyclohexyl-2-(3,4,5-trimethoxyphenyl)acetyl)piperidine-2-carboxylate] | 34 ± 10 |
